Assay results: ChEMBL document CHEMBL3045786, “Insect antifeedant activity of tetranortriterpenoids from the Rutales. A perusal of structural relations” (2002)

test system: Spodoptera litura; test: Antifeedant activity against larvae of Spodoptera litura in castor leaves relative to control; format: functional

Which AFI does the source give for `COC(=O)C[C@H]1[C@]2(C)C3=C(C)[C@H](c4ccoc4)C[C@H]3O[C@@H]2[C@@H]2OC[C@]3(C)[C@H](O)C[C@H](OC(=O)C=C(C)C)[C@@]1(C)[C@@H]23` here?
The AFI was 52.1%.

test system: Spodoptera litura; test: Feeding index against larvae of Spodoptera litura in castor leaves =

Which PFI does the source give for `CC(=O)O[C@@H]1C[C@@H](O)[C@@]2(C)[C@@H](C[C@@H](OC(C)=O)[C@@]3(C)C4=CC[C@@H](C5=C[C@@H](CC(C)C)O[C@@H]5O)[C@]4(C)C[C@@H](O)[C@@H]32)C1(C)C` [3R-ACETOXY-1R-HYDROXYAZADIRACHTOL] here?
Its PFI is 4.2%.

With `COC1=C2C(C)(C)C(=O)CC[C@]2(C)[C@H]2CC[C@@]3(C)[C@H](c4ccoc4)C[C@H]4O[C@]43[C@]2(C)C1=O` [DIHYDROCEDRELONE METHYL ETHER] as the compound, how does the PFI read?
The PFI was 56.5%.

With `CC(=O)O[C@@H]1C[C@H]2C(C)(C)C(=O)C=C[C@]2(C)[C@H]2CC[C@]3(C)C(=CC(=O)[C@H]3c3ccoc3)[C@@]21C` [AZADIRADIONE] as the compound, how does the PFI read?
The PFI was 35.5%.

With `COC1=C2C(C)(C)C(=O)C=C[C@]2(C)[C@H]2CC[C@@]3(C)[C@H](c4ccoc4)C[C@H]4O[C@]43[C@]2(C)C1=O` [CEDRELONEMETHYL ETHER] as the compound, how does the PFI read?
Its PFI is 56%.

For `C/C=C(\C)C(=O)O[C@H]1C[C@@H](O)[C@@]2(C)CO[C@H]3[C@H]4O[C@@H]5C[C@@H](C6=CCOC6=O)C(C)=C5[C@@]4(C)[C@H](CC(=O)OC)[C@]1(C)[C@@H]32` [DESACETYLSALANNOBUTYROLACTONE], which PFI is on record?
The PFI was 40.35%.

For `COC(=O)C[C@H]1[C@]2(C)C3=C(C)[C@H](c4ccoc4)C[C@H]3O[C@@H]2C(=O)[C@@H]2[C@]1(C)C(=O)C=C[C@@]2(C)C(=O)OC` [6-OXONIMBIN], which PFI is on record?
Its PFI is 42.3%.

With `CC(=O)O[C@@H]1[C@H](O)[C@H]2C(C)(C)C(=O)C=C[C@]2(C)[C@H]2CC[C@@]3(C)[C@H](c4ccoc4)C[C@H]4O[C@]43[C@]12C` [EPOXY NIMONOL] as the compound, how does the PFI read?
The PFI was 32%.

With `C/C=C(\C)C(=O)O[C@@H]1[C@@H]2C=C3[C@@H]4CC(=O)O[C@@H](C5=CC(O)OC5=O)[C@]4(C)CC[C@@H]3[C@@](C)(C2=O)[C@@H]([C@@H](O)C(=O)OC)C1(C)C` (stereo not given in full) [SWIETENINE PP] as the compound, how does the PFI read?
Its PFI is 40.2%.

For `C/C=C(\C)C(=O)O[C@H]1C[C@@H](OC(C)=O)[C@@]2(C)CO[C@H]3[C@H]4O[C@@H]5CC(C6=CC(=O)OC6O)=C(C)C5[C@@]4(C)[C@H](CC(=O)OC)[C@]1(C)[C@@H]32` (stereo not given in full) [SALANNIN PP1], which PFI is on record?
The PFI was 29.1%.
